# In US8969378B2, “Inhibitor of the differentiation of T cells into Th1 cells” (Kowa Co., Ltd., priority 2007, dated 2015):
# How the values were obtained:
# [1] = system: Th1 cells derived from spleen cells of MOG-immunized mice; test: Inhibition of activation of Th1 cells: IFN-γ production by MOG-stimulated spleen cells of EAE mice (ELISA); assay type: cell-based, C57BL/6 mice; details: FIG. 1; for concentration that significantly reduced the amount of IFN-γ produced by Th1 cells (inhibited activation of Th1 cells): spleen cells of MOG-immunized EAE mice, day 14, stimulated with MOG, IFN-γ in supernatant by ELISA
# Experimental: Five C57BL/6 mice were immunized with myelin oligodendrocyte glycoprotein (MOG), and mice with experimental autoimmune encephalomyelitis ([…] model of multiple sclerosis) were prepared in a conventional manner. On day 14 after immunization, spleen cells were collected from each mouse and cultured in a 24-well culture plate coated with CD3 and CD28 antibodies, and then stimulated with MOG in the presence of pitavastatin or atorvastatin, to thereby activate Th1 cells. The Th1 cytokine (IFN-γ) concentration of the supernatant of the resultant cell culture was determined through ELISA.
# [2] = system: human T cells; test: Differentiation of peripheral blood T cells into Th1 / Th2 cells (IL-12, anti-CD3/CD28, flow cytometry); assay type: cell-based; details: FIG. 2; for concentration exhibiting the effect of inhibiting differentiation of T cells into Th1 cells / concentration exhibiting the effect of promoting differentiation of T cells into Th2 cells: human peripheral blood cells, IL-12 100 ng/mL, four days; for concentration exhibiting the effect of inhibiting differentiation of T cells into Th1 cells: CD4-positive IFN-γ-positive cells; for concentration exhibiting the effect of promoting differentiation of T cells into Th2 cells: CD4-positive IL-4-positive cells
# Experimental: Peripheral blood (10 mL) was collected from six healthy adults in heparin, and […] were isolated through the Ficol-Hypaque method (i.e., a customary method). The thus-isolated cells were diluted to 1×10^6/mL and then inoculated into a 24-well culture plate coated with CD3 and CD28 antibodies (Falcon), followed by culturing for four days in the presence of IL-12 (100 ng/mL), to thereby induce differentiation of T cells into Th1 cells. Atorvastatin or pitavastatin (0.01 to 10 μM) was added at the time of initiation of culturing, and the effect of each drug on differentiation of T cells into Th1 cells was examined. After completion of culturing, cells were washed thrice with PBS, and cytokines (IFN-γ and IL-4) in the cells and CD4 on the surfaces of the cells were stained in a conventional manner. The ratio of Th1 (CD4-positive, IFN-γ-positive cells) or Th2 (CD4-positive, IL-4-positive cells) to all the CD4-positive T cells was determined through flow cytometry.
# Specifically, lymphocytes were stimulated with anti-CD3 antibody and anti-CD28 antibody, and the amounts of INF-γ (Th1 cytokine) and IL-4 (Th2 cytokine) in the cells were determined through flow cytometry, to thereby compare pitavastatin with atorvastatin in terms of the effect of inhibiting differentiation of peripheral blood T cells into Th1 cells, and the effect of promoting differentiation of peripheral blood T cells into Th2 cells.
SMILES,concentration that significantly reduced the amount of IFN-γ produced by Th1 cells (inhibited activation of Th1 cells) [1] [µM],"effect of inhibiting activation of Th1 cells relative to atorvastatin ([1]; versus atorvastatin, from amount of IFN-γ produced) [fold]",concentration exhibiting the effect of inhibiting differentiation of T cells into Th1 cells [2],concentration exhibiting the effect of promoting differentiation of T cells into Th2 cells [2],Th1/Th2 ratio improving effect relative to atorvastatin ([2]; versus atorvastatin) [fold],effect of promoting differentiation of T cells into Th2 cells relative to atorvastatin ([2]; versus atorvastatin) [fold]
"O=C(O)C[C@H](O)C[C@H](O)/C=C/c1c(C2CC2)nc2ccccc2c1-c1ccc(F)cc1 [pitavastatin, (3R,5S,6E)-7-[2-cyclopropyl-4-(4-fluorophenyl)-3-quinolyl]-3,5-dihydroxy-6-heptenoic acid]",≥ 10,2.5,1 µM,1 µM,10,10
CC(C)c1c(C(=O)Nc2ccccc2)c(-c2ccccc2)c(-c2ccc(F)cc2)n1CC[C@@H](O)C[C@@H](O)CC(=O)O [atorvastatin],25,,at least 10 μM,at least 10 μM,,
